The source of these data is PubChem BioAssay AID1259407 (Chemical Carcinogenesis Research Information System (CCRIS), 2018).

The source made the active and inactive calls. How the calls were made is not given here.

The subject of this series is CCRIS mutagenicity, Ames/micronucleus/aberration tests. Description: CCRIS mutagenicity studies.
The mark [1] stands for this setting: Test System: AMES SALMONELLA TYPHIMURIUM, Strain/Indicator: TA98, Metabolic Activation: NONE, Method: STANDARD PLATE.
Setting [2] is: Test System: AMES SALMONELLA TYPHIMURIUM, Strain/Indicator: TA1535, Metabolic Activation: NONE, Method: STANDARD PLATE.

For the compound `ClCCNCCCNc1c2ccccc2nc2c1ccc1cccnc12`, the mutagenic call by setting is: under setting [1], “active; positive”; (Test System: AMES SALMONELLA TYPHIMURIUM, Strain/Indicator: TA100, Metabolic Activation: NONE, Method: STANDARD PLATE) “active; positive”; under setting [2], “inactive; negative”; (Test System: AMES SALMONELLA TYPHIMURIUM, Strain/Indicator: TA1536, Metabolic Activation: NONE, Method: STANDARD PLATE) “active; positive”; (Test System: AMES SALMONELLA TYPHIMURIUM, Strain/Indicator: TA1537, Metabolic Activation: NONE, Method: STANDARD PLATE) “active; positive”; (Test System: AMES SALMONELLA TYPHIMURIUM, Strain/Indicator: TA1538, Metabolic Activation: NONE, Method: STANDARD PLATE) “active; positive”.

Turning to `CCCN(COC(C)=O)N=O`, the mutagenic call (Test System: UDS RAT UROTHELIAL CELLS, Strain/Indicator: THY INCORP, Metabolic Activation: NONE) is “active; positive”.

Turning to `O[C@@H]1C=Cc2c(cc3ccc4cccc5c6ccccc6c2c3c45)[C@H]1O`, the mutagenic call was “active; positive” (Test System: CHINESE HAMSTER V-79, Strain/Indicator: V-79 (HPRT)/6-THIOGUANINE, Metabolic Activation: HUMAN MAMMARY CARCINOMA MCF-7 CELLS) and “active; positive” (Test System: CHINESE HAMSTER V-79, Strain/Indicator: V-79, Metabolic Activation: RAT, LIVER, S-9, AROCLOR 1254).

With `[Ag][I]`, the mutagenic call reads like this: (Test System: AMES SALMONELLA TYPHIMURIUM, Strain/Indicator: TA97, Metabolic Activation: NONE, Method: STANDARD PLATE) “inactive; negative”; (Test System: AMES SALMONELLA TYPHIMURIUM, Strain/Indicator: TA97, Metabolic Activation: RAT LIVER S-9, AROCLOR 1254, Method: STANDARD PLATE) “active; positive”; under setting [1], “inactive; negative”; (Test System: AMES SALMONELLA TYPHIMURIUM, Strain/Indicator: TA98, Metabolic Activation: RAT LIVER S-9, AROCLOR 1254, Method: STANDARD PLATE) “inactive; negative”; (Test System: AMES SALMONELLA TYPHIMURIUM, Strain/Indicator: TA102, Metabolic Activation: NONE, Method: STANDARD PLATE) “active; positive”; (Test System: AMES SALMONELLA TYPHIMURIUM, Strain/Indicator: TA102, Metabolic Activation: RAT LIVER S-9, AROCLOR 1254, Method: STANDARD PLATE) “inactive; negative”. Moreover, the mutagenic call reads like this: under setting [2], “inactive; negative”; (Test System: AMES SALMONELLA TYPHIMURIUM, Strain/Indicator: TA1535, Metabolic Activation: RAT LIVER S-9, AROCLOR 1254, Method: STANDARD PLATE) “inactive; negative”.

With `C[C@H]1COc2c(N3CCN(C)CC3)c(F)cc3c(=O)c(C(=O)O)cn1c23`, the mutagenic call (Test System: AMES SALMONELLA TYPHIMURIUM, Strain/Indicator: TA98, Metabolic Activation: NONE, Method: PREINCUBATION) is “inactive; negative”; the mutagenic call (Test System: AMES SALMONELLA TYPHIMURIUM, Strain/Indicator: TA98, Metabolic Activation: RAT, LIVER, S-9, PHENOBARBITAL AND BETA-NAPHTHOFLAVONE, Method: PREINCUBATION) is “inactive; negative”; the mutagenic call (Test System: AMES SALMONELLA TYPHIMURIUM, Strain/Indicator: TA100, Metabolic Activation: NONE, Method: PREINCUBATION) is “inactive; negative”; the mutagenic call (Test System: AMES SALMONELLA TYPHIMURIUM, Strain/Indicator: TA100, Metabolic Activation: RAT, LIVER, S-9, PHENOBARBITAL AND BETA-NAPHTHOFLAVONE, Method: PREINCUBATION) was “inactive; negative”; the mutagenic call (Test System: AMES SALMONELLA TYPHIMURIUM, Strain/Indicator: TA1535, Metabolic Activation: NONE, Method: PREINCUBATION) is “inactive; negative”; the mutagenic call (Test System: AMES SALMONELLA TYPHIMURIUM, Strain/Indicator: TA1535, Metabolic Activation: RAT, LIVER, S-9, PHENOBARBITAL AND BETA-NAPHTHOFLAVONE, Method: PREINCUBATION) was “inactive; negative”. The mutagenic call is “inactive; negative” (Test System: AMES SALMONELLA TYPHIMURIUM, Strain/Indicator: TA1537, Metabolic Activation: NONE, Method: PREINCUBATION); “inactive; negative” (Test System: AMES SALMONELLA TYPHIMURIUM, Strain/Indicator: TA1537, Metabolic Activation: RAT, LIVER, S-9, PHENOBARBITAL AND BETA-NAPHTHOFLAVONE, Method: PREINCUBATION); “inactive; negative” (Test System: CHINESE HAMSTER OVARY, Strain/Indicator: CHO-K1 (HGPRT)/6-THIOGUANINE, Metabolic Activation: NONE); “inactive; negative” (Test System: CHINESE HAMSTER OVARY, Strain/Indicator: CHO-K1 (HGPRT)/6-THIOGUANINE, Metabolic Activation: RAT, LIVER, S-9, PHENOBARBITAL AND BETA-NAPHTHOFLAVONE); “inactive; negative” (Test System: E.COLI, Strain/Indicator: WP2 UVRA, Metabolic Activation: NONE, Method: PREINCUBATION); “inactive; negative” (Test System: E.COLI, Strain/Indicator: WP2 UVRA, Metabolic Activation: RAT, LIVER, S-9, PHENOBARBITAL AND BETA-NAPHTHOFLAVONE, Method: PREINCUBATION). For the same compound, the mutagenic call (Test System: UDS RAT HEPATOCYTES, Strain/Indicator: THY INCORP, Metabolic Activation: NONE, Method: IN VIVO-IN VITRO) is “inactive; negative”.
